Results as given in patent US20040048195A1, “Heat-sensitive lithographic printing plate precursor” (AGFA-GEVAERT, priority 2002, published 2004).
Like-named read-outs stand apart in the source and are kept apart here.

Legend:
Type in all cases: physicochemical
[1] = Test of inhibiting capability of the dyes: dissolution time of unexposed novolac/dye coating in Agfa EP26 developer; details: dye 35 mg/m^2 in 0.9 g/m^2 novolac, Agfa EP26 developer at 20° C., reference without dye 30 sec
Procedure: A layer of novolac (Alnovol SPN452 from Clariant, a 40.5 wt. % solution in methoxypropanol) and the dyes specified in Table 2 were coated on the above support. After drying during 1 min at 130° C., the samples contained 0.9 g/m^2 of novolac. A series of unexposed samples is immersed in Agfa EP26 developer at 20° C., each sample during a different time period. After the immersion period, the sample was removed from the developer, immediately rinsed with water, dried and then the dissolution of the coating in the developer was measured by comparing the weight of the sample before and after the development. As soon as the coating is dissolved completely, no more weight loss is measured upon longer immersion time periods, i.e. a curve representing weight loss as a function of immersion time reaches a plateau from the moment of complete dissolution of the layer, which is referred to herein as “dissolution time”. When the dissolution time of the sample containing the IR dye is longer than the dissolution time of the sample without the IR dye, then the IR dye clearly acts as an inhibitor.

[2] = Solubility of the IR-dyes (supersaturated solution, filtration, spectrophotometric determination); details: for solubility: thermodynamic from solid
Procedure: The solubility of the IR-dyes IR-1 to −5 and of a comparison dye Cl (commercially available from FEW Chemicals GmbH) was determined as follows:
the extinction coefficient of the dyes was measured in methanol with a HP8453 UV/VIS/NIR spectrophotometer;
a supersaturated solution of the dyes in a) 2-methoxyl-propanol (MOP) and b) water/NaOH (pH=9) was prepared; after filtration the concentration of dissolved dye was determined by dissolution with methanol using the previous determined extinction coefficient. [drawing 8]

[3] = as above; details: water/NaOH, pH 11.7, aqueous buffer, thermodynamic from solid, insoluble at pH = 9; NaOH was added until pH = 11.7; read-out: Solubility in H2O/NaOH

CC1(C)C(/C=C/C2=C(Sc3ccccc3C(=O)O)C(=C/C=C3/N(CCCCS(=O)(=O)[O-])c4ccccc4C3(C)C)/CCC2)=[N+](CCCCS(=O)(=O)[O-])c2ccccc21.[K+] [IR-dye 1]
Dissolution time ([1]; listed as IR-1): 30 s | Solubility in MOP ([2]; 2-methoxyl-propanol (MOP)): 3.8 mg/mL | Solubility in H2O/NaOH at pH = 9 ([2]; water/NaOH, pH = 9): 40.1 g/l

CC1(C)C(/C=C/C2=C(Sc3ccccc3C(=O)O)C(=C/C=C3/N(CCCCS(=O)(=O)[O-])c4ccccc4C3(C)C)/CCC2)=[N+](CCCCS(=O)(=O)[O-])c2ccccc21.[K+] [IR-dye 2]
Dissolution time ([1]; listed as IR-2): 20 s | Solubility in MOP ([2]; 2-methoxyl-propanol (MOP)): 0.42 mg/mL | Solubility in H2O/NaOH at pH = 9 ([2]; water/NaOH, pH = 9): >50 g/l

CC1(C)C(/C=C/C2=C(Sc3ccccc3C(=O)O)C(=C/C=C3/N(CCCCS(=O)(=O)[O-])c4ccccc4C3(C)C)/CCC2)=[N+](CCCCS(=O)(=O)[O-])c2ccccc21.[K+] [IR-dye 4]
Dissolution time ([1]; listed as IR-4): 20 s | Solubility in MOP ([2]; 2-methoxyl-propanol (MOP)): 5.7 mg/mL | Solubility in H2O/NaOH at pH = 9 ([2]; water/NaOH, pH = 9): >50 g/l

CC1(C)C(/C=C/C2=C(Sc3ccccc3C(=O)O)C(=C/C=C3/N(CCCCS(=O)(=O)[O-])c4ccccc4C3(C)C)/CCC2)=[N+](CCCCS(=O)(=O)[O-])c2ccccc21.[K+] [IR-dye 5]
Dissolution time ([1]; listed as IR-5): 25 s | solubility ([2]; 2-methoxyl-propanol (MOP) with tri-ethylamine, organic solvent or mixture, 2-methoxyl-propanol (MOP), tri-ethylamine was added to dissolve the dye, read-out: Solubility in MOP): 91.3 mg/mL | solubility ([2]; water/NaOH, pH 9, aqueous buffer, water/NaOH, pH = 9, read-out: Solubility in H2O/NaOH at pH = 9): > 50 mg/mL

CC1(C)C(/C=C/C2=C(Sc3ccccc3C(=O)O)C(=C/C=C3/N(CCCCS(=O)(=O)[O-])c4ccccc4C3(C)C)/CCC2)=[N+](CCCCS(=O)(=O)[O-])c2ccccc21.[K+] [IR-dye 3]
Dissolution time ([1]; listed as IR-3): 30 s | Solubility in MOP ([2]; 2-methoxyl-propanol (MOP)): >100 mg/mL | Solubility in H2O/NaOH at pH = 9 ([2]; water/NaOH, pH = 9): >50 g/l

CN1/C(=C/C=C2\CCCC(/C=C/C3=[N+](C)c4ccc5ccccc5c4C3(C)C)=C2Cl)C(C)(C)c2c1ccc1ccccc21 [Comparison, reference compound]
Dissolution time [1]: 60 s | solubility [3]: < 0.002 mg/mL | solubility ([2]; 2-methoxyl-propanol (MOP), organic solvent or mixture, 2-methoxyl-propanol (MOP), read-out: Solubility in MOP): 50.1 mg/mL
